Counter-ions that a name gives are not always drawn. Like-named read-outs stand apart in the source and are kept apart here.
Legend:
5-lipoxygenase = biological target: T1, 5-lipoxygenase (Rattus norvegicus, UniProt P12527); experiment: ARBL whole cell 5-lipoxygenase assay (LTB4 formation, RBL-1 cells); assay type: cell-based
T1 construct: host or cells: RBL-1
T1 sequence (P12527 1-673): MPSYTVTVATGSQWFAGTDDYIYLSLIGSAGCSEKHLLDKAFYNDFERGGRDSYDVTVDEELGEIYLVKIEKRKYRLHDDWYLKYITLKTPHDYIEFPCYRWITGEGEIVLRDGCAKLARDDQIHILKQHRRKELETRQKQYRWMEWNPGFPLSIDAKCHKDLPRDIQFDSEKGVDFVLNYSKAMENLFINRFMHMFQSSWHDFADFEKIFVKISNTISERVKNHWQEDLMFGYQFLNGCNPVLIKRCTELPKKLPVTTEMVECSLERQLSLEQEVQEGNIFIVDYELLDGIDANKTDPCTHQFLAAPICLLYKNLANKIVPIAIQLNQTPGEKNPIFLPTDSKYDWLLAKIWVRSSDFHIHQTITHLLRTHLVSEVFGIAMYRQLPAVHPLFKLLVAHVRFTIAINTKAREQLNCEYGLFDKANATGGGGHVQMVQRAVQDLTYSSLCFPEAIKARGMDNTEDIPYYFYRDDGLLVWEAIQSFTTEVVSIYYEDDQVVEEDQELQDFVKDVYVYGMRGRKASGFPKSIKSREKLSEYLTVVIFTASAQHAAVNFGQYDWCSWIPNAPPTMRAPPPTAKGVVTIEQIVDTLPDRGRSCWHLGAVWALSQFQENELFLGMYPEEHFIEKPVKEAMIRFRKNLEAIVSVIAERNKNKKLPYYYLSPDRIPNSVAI
Protocol: (§1) ARBL/ARBC WHOLE CELL 5-LIPOXYGENASE AND CYCLOOXYGENASE ASSAYS The rat basophilic leukemia cell line (RBL-1) was obtained from the American Type Culture Collection (Rockville, Md.). Radioimmunoassay (RIA) kits of LTB4 and PGF2α were obtained from Amersham (Arlington Heights, Ill.) and Seragen (Boston, Mass.), respectively. RBL-1 cells are grown in suspension culture in Eagle's minimum essential medium supplemented with 12% fetal bovine serum at 37° C. in an incubator supplied with air-5% carbon dioxide. Cells are harvested by centrifugation. They are washed with cold phosphate-buffered saline, pH 7.4 (PBS; NaCl, 7.1 g; Na2 HPO4, 1.15 g; KH2 PO4, 0.2 g; and KCl, 0.2 g/L). Cells are finally suspended in PBS containing 1.0 mM calcium at a density of 2×10^6 cells/mL. Cells are incubated […] test agent (in DMSO) (1% DMSO is without effect on arachidonic acid metabolism) for 10 minutes at room temperature. Calcium ionophore A23187 (5 μM) is added and cells are incubated for 7 minutes at 37° C. The reaction is stopped by chilling the tubes on ice for 10 minutes. Cells are separated by centrifugation and the supernatant is stored at -20° C. Aliquots (100 μL) are analyzed for LTB4 and PGF2α using radioimmunoassay kits as provided by the supplier. Table 1 contains biochemical data for compounds of Formula I obtained from this whole cell assay as amount of inhibition at given μM or IC50 s which are calculated as the concentration of a test compound in micromoles (μM) causing 50% inhibition of LTB4 or PGF2αformation.

cyclooxygenase = biological target: T2, cyclooxygenase (Rattus norvegicus, UniProt Q63921); experiment: ARBC whole cell cyclooxygenase assay (PGF2α formation, RBL-1 cells); assay type: cell-based
T2 construct: host or cells: RBL-1
T2 sequence (Q63921 27-602): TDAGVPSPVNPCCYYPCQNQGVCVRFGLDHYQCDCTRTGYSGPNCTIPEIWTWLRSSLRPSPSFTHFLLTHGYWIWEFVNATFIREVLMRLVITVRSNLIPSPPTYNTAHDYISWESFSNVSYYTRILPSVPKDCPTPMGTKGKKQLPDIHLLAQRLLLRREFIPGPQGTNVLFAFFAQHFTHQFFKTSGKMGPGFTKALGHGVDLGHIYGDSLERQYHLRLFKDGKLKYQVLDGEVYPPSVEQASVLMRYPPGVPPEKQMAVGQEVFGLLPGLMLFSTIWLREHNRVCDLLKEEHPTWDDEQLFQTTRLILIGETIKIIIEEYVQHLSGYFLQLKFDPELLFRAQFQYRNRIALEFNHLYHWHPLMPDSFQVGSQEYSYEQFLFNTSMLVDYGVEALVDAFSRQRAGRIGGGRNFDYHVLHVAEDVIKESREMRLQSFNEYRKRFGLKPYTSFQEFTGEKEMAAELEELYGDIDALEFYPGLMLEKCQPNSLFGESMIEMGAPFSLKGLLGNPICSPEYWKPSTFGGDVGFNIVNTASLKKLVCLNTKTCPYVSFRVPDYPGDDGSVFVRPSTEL
Protocol: as §1

[1] = system: carrageenan-induced rat foot paw edema; experiment: Carrageenan-induced rat foot paw edema-2 (CFE-2) assay; assay type: in vivo; conditions: dosed 1 hour before carrageenan, edema measured 5 hours after, read-out: CFE ID40
Protocol: CARRAGEENAN-INDUCED RAT FOOT PAW EDEMA-2 (CFE-2) ASSAY: PROTOCOL
Carrageenan solution (1% w/v) is prepared by dissolving 100 mg carrageenan (Marine Colloidal Div., Springfield, N.J.) in 10 mL of sterile saline (0.9%) solution (Travenol). The solution is vortexed for 30 to 45 minutes. Animals are dosed with compound 1 hour before carrageenan challenge. Foot paw edema is induced by injecting 0.10 mL of the 1% carrageenan subcutaneously into the plantar portion of the right hind paw of each rat under light anesthesia. Initial foot paw volume is measured immediately following carrageenan challenge using mercury plethysmography (Buxco Electronics). Edema is measured 5 hours after carrageenan. The difference between the 5-hour and the initial paw volume is expressed as delta edema. The delta edema for each test group of animals is used to calculate the percent inhibition of edema achieved by the compound at the test dose compared with the vehicle control group. The ID40 (the dose at which swelling is inhibited by 40%) is calculated by probit analysis for the dose at which 40% inhibition occurs.

[2] = A23187, read-out: ARBL inhibition of LTB4 at given concentration
[3] = A23187, class symbol, read-out: ARBC inhibition at given concentration (N)
[4] = @ 16 μM, A23187, class symbol, read-out: ARBC inhibition at given concentration (N)
[5] = A23187, class symbol, read-out: ARBL inhibition at given concentration (N)

Row | SMILES | inhibition at 16 µM (5-lipoxygenase; [2]) [%] | inhibition at 16 µM (cyclooxygenase; [4]) [%] | further results
1 | CONC(c1ccccc1)c1cc(C(C)(C)C)c(O)c(C(C)(C)C)c1 (stereo not shown) [Example 18, 2,6-Bis(1,1-dimethylethyl)-4-[(methoxyamino)phenylmethyl]phenol, monohydrochloride] |  |  | inhibition at 10 µM (5-lipoxygenase; [2]): 93%; inhibition at 10 µM (cyclooxygenase; [3]): < 40%
2 | CCOC(=O)NC(=S)N(O)C(C)c1cc(C(C)(C)C)c(O)c(C(C)(C)C)c1 (stereo not shown) [Example 11, [[[1-[3,5-Bis(1,1-dimethylethyl)-4-hydroxyphenyl]-ethyl]hydroxyamino]-thioxomethyl]carbamic acid, ethyl ester, acetate (10:3)] | 91 | < 40 | 
3 | CC(C)(C)c1cc(C(c2ccccc2)N(O)C(N)=O)cc(C(C)(C)C)c1O (stereo not shown) [Example 27, N-[[3,5-Bis(1,1-dimethylethyl)-4-hydroxyphenyl]-phenylmethyl]-N-hydroxyurea] |  |  | inhibition at 10 µM (5-lipoxygenase; [2]): 97%; inhibition at 10 µM (cyclooxygenase; [3]): < 40%
4 | CC(C)C(=O)N(O)C(c1ccccc1)c1cc(C(C)(C)C)c(O)c(C(C)(C)C)c1 (stereo not shown) [Example 21, N-[[3,5-Bis(1,1-dimethylethyl)-4-hydroxyphenyl]-phenylmethyl]-N-hydroxy-2-methylpropanamide] |  |  | ED40 [1]: 5.3 mg/kg
5 | CCNC(=O)N(O)C(c1ccccc1)c1cc(C(C)(C)C)c(O)c(C(C)(C)C)c1 (stereo not shown) [Example 24, N-[[3,5-Bis(1,1-dimethylethyl)-4-hydroxyphenyl]-phenylmethyl]-N'-ethyl-N-hydroxyurea] | 99 | < 40 | 
6 | CC(=O)N(O)C(c1ccccc1)c1cc(C(C)(C)C)c(O)c(C(C)(C)C)c1 (stereo not shown) [Example 22, N-[[3,5-Bis(1,1-dimethylethyl)-4-hydroxyphenyl]-phenylmethyl]-N-hydroxyacetamide] |  |  | IC50 (5-lipoxygenase; 50% inhibition of LTB4 formation): 4.8 µM; ARBC inhibition of PGF2α at given concentration (cyclooxygenase; @ 16 μM, A23187): 42/75; ED40 [1]: > 30 mg/kg
7 | CNC(=O)N(O)C(c1ccccc1)c1cc(C(C)(C)C)c(O)c(C(C)(C)C)c1 (stereo not shown) [Example 25, N-[[3,5-Bis(1,1-dimethylethyl)-4-hydroxyphenyl]-phenylmethyl]-N-hydroxy-N'-methylurea] | 93 | < 40 | 
8 | CCOC(=O)N(O)C(C)c1cc(C(C)(C)C)c(O)c(C(C)(C)C)c1 (stereo not shown) [Example 6, [1-[3,5-Bis(1,1-dimethylethyl)-4-hydroxyphenyl]-ethyl]hydroxycarbamic acid, ethyl ester] | > 96 | < 40 | 
9 | CNC(=S)N(O)C(C)c1cc(C(C)(C)C)c(O)c(C(C)(C)C)c1 (stereo not shown) [Example 7, N-[1-[3,5-Bis(1,1-dimethylethyl)-4-hydroxyphenyl]-ethyl]-N-hydroxy-N'-methylthiourea] |  | < 40 | inhibition at 16 µM (5-lipoxygenase; [5]): < 40%
10 | CNC(=O)N(O)C(C)c1cc(C(C)(C)C)c(O)c(C(C)(C)C)c1 (stereo not shown) [Example 8, N-[1-[3,5-Bis(1,1-dimethylethyl)-4-hydroxyphenyl]-ethyl]-N-hydroxy-N'-methylure] |  |  | inhibition at 16 µM (5-lipoxygenase; [5]): < 40%; inhibition at 16 µM (cyclooxygenase; @ 16 μM, A23187, read-out: ARBC inhibition of PGF2α at given concentration): 45%
11 | CCOC(=O)N(O)C(c1ccccc1)c1cc(C(C)(C)C)c(O)c(C(C)(C)C)c1 (stereo not shown) [Example 23, N-[[3,5-Bis(1,1-dimethylethyl)-4-hydroxyphenyl]-phenylmethyl]hydroxycarbamic acid, ethyl ester] | 97 | < 40 | 
12 | CNC(=S)N(O)C(c1ccccc1)c1cc(C(C)(C)C)c(O)c(C(C)(C)C)c1 (stereo not shown) [Example 26, N-[[3,5-Bis(1,1-dimethylethyl)-4-hydroxyphenyl]-phenylmethyl]-N-hydroxy-N'-methylthiourea] | 98 | < 40 | 
13 | CC(C)C(=O)N(O)C(C)c1cc(C(C)(C)C)c(O)c(C(C)(C)C)c1 (stereo not shown) [Example 4, N-[1-[3,5-Bis(1,1-dimethylethyl)-4-hydroxyphenyl]-ethyl]-N-hydroxy-2-methylpropanamide] | > 91 | < 40 | 
14 | CCNC(=O)N(O)C(C)c1cc(C(C)(C)C)c(O)c(C(C)(C)C)c1 (stereo not shown) [Example 9, N-[1-[3,5-Bis(1,1-dimethylethyl)-4-hydroxyphenyl]-ethyl]-N'-ethyl-N-hydroxyurea] | > 91 | < 40 | 

The next lines start with results.

Row | inhibition at 16 µM (5-lipoxygenase; [2]) [%] | inhibition at 16 µM (cyclooxygenase; [4]) [%] | SMILES | further results
15 | > 90 | < 40 | CC(=O)N(O)C(C)c1cc(C(C)(C)C)c(O)c(C(C)(C)C)c1 (stereo not shown) [Example 5, N-[1-[3,5-Bis(1,1-dimethylethyl)-4-hydroxyphenyl]-ethyl]-N-hydroxyacetamide] | 
16 | 95 | < 40 | CC(C)C(=O)N(O)Cc1cc(C(C)(C)C)c(O)c(C(C)(C)C)c1 [Example 14, N-[[3,5-Bis(1,1-dimethylethyl)-4-hydroxyphenyl]-methyl]-N-hydroxy-2-methylpropanamide] | 
17 | 49 | < 40 | CC(C)C(=O)ON(Cc1cc(C(C)(C)C)c(O)c(C(C)(C)C)c1)C(=O)C(C)C [Example 13, N-[[3,5-Bis(1,1-dimethylethyl)-4-hydroxyphenyl]-methyl]-2-methyl-N-[2-methyl-1-oxopropoxy]propanamide] | 
18 | 79 | < 40 | CC(c1cc(C(C)(C)C)c(O)c(C(C)(C)C)c1)N(O)C(N)=O (stereo not shown) [Example 10, N-[1-[3,5-Bis(1,1-dimethylethyl)-4-hydroxylphenyl]-ethyl]-N-hydroxyurea] | 
19 | 95 | < 40 | CC(=O)ON(Cc1cc(C(C)(C)C)c(O)c(C(C)(C)C)c1)C(C)=O [Example 12, N-(Acetyloxy)-N-[[3,5-bis(1,1-dimethylethyl)-4-hydroxyphenyl]methyl]acetamide, 0.3 hydrate] | 
20 | 90 | < 40 | CC(=O)N(O)Cc1cc(C(C)(C)C)c(O)c(C(C)(C)C)c1 [Example 15] | 
